Measured values reported in US8722849B2, “Polypeptides” (Novo Nordisk A/S, priority 2011, dated 2014).
Starred links: 1 amine or outer side, 2 acyl side, 3 side chain; linkers in the order of their positions; H or OH if unused. Positions of bridges follow the written chain, without caps; N, C: chain ends. Residues, ends and D or L forms follow the SMILES beside them. Groups on a side chain read outwards from the residue. *: point of attachment. C20 diacid = O=C(O)CCCCCCCCCCCCCCCCCCC(=O)*; C18 diacid = O=C(O)CCCCCCCCCCCCCCCCC(=O)*; γGlu = O=C(O)[C@H](CCC(=O)[*:2])N[*:1]; AEEA = NCCOCCOCC(=O)O

Tests used:
Assay type in all cases: cell-based
[1] = target: T1, rat amylin 3(a) receptor (rat calcitonin(a) receptor + rat RAMP3) (Rattus norvegicus, UniProt P32214+Q9JJ73); experiment: Assay (II)b functional cAMP FlashPlate assay, rat amylin receptor; conditions: Table 11
T1 construct: expressed in transfected cells; host or cells: BHK tk'ts 13
T1 sequence (P32214 25-479 isoform P32214-2 limits assumed): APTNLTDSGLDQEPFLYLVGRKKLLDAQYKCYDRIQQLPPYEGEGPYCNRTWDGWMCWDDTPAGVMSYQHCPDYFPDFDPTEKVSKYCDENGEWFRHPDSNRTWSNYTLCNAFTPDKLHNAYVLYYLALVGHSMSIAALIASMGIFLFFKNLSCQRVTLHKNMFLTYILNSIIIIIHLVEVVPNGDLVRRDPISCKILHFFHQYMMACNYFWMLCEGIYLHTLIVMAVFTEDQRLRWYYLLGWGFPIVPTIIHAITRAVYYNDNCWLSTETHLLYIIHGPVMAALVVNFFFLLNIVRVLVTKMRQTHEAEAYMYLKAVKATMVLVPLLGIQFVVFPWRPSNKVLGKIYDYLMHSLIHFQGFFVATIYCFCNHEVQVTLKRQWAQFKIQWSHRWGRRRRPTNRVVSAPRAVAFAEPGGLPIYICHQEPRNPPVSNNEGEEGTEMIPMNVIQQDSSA
T1 sequence (Q9JJ73 23-147 partner): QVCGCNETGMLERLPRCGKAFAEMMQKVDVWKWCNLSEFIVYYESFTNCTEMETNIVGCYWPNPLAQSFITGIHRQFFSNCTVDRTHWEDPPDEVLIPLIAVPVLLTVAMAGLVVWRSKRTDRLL
Procedure, shortened: (§1)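 cAMP accumulation in transiently transfected BHK tk'ts 13 cells, 100.000 cells/well, expressing rat calcitonin(a) receptor or its RAMP3 co-expression form (amylin 3(a)): 30 min stimulation with IBMX, 24 hours post-transfection. Readout by competition of cellular versus radiolabelled cAMP in FlashPlates, scintillation counted after 3 h.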

[2] = target: T2, rat calcitonin (a) receptor (Rattus norvegicus, UniProt P32214); experiment: Assay (II)b functional cAMP FlashPlate assay, rat calcitonin receptor; conditions: Table 11; read-out: CTa receptor rat EC50
T2 construct: expressed in transfected cells; host or cells: BHK tk'ts 13
T2 sequence (P32214 25-479 isoform P32214-2 limits assumed): T1 sequence (P32214 25-479 isoform P32214-2 limits assumed)
Procedure, shortened: as §1

[3] = target: T3, human calcitonin receptor (Homo sapiens, UniProt P30988); experiment: Assay (II)a functional CRE-luciferase assay, human calcitonin receptor; conditions: Table 7; human calcitonin (CTa) receptor
T3 construct: expressed in transfected cells; host or cells: BHK570
T3 sequence (P30988 25-474): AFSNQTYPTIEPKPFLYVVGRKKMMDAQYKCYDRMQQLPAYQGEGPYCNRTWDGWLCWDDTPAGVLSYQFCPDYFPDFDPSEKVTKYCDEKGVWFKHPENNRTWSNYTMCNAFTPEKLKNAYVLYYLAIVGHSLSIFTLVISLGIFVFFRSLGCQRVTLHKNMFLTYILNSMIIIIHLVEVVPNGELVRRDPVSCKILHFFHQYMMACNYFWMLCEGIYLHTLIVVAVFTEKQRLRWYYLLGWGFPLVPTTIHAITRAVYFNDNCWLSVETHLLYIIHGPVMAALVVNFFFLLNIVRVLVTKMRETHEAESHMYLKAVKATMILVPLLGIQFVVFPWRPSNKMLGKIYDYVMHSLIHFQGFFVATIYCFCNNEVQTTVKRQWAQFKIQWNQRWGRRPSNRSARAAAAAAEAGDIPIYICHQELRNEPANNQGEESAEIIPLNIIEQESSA

Structure (SMILES) | EC50 [1] [nM] | EC50 [2] [nM] | EC50 [3] [nM]
CC[C@H](C)[C@H](NC(=O)[C@@H]1CCCN1C(=O)CNC(=O)[C@H](Cc1ccccc1)NC(=O)[C@H](CC(N)=O)NC(=O)[C@H](CC(N)=O)NC(=O)[C@H](CO)NC(=O)[C@H](CO)NC(=O)[C@H](Cc1c[nH]cn1)NC(=O)[C@H](CCCNC(=N)N)NC(=O)[C@H](CC(C)C)NC(=O)[C@H](Cc1ccccc1)NC(=O)[C@H](CCC(=O)O)NC(=O)[C@H](C)NC(=O)[C@H](CC(C)C)NC(=O)[C@H](CCCNC(=N)N)NC(=O)[C@H](CCC(N)=O)NC(=O)[C@@H](NC(=O)[C@H](C)NC(=O)[C@@H]1CSSC[C@H](NC(=O)[C@H](CCCCN)NC(=O)[C@H](CCC(=O)O)NC(=O)CC[C@H](NC(=O)CCCCCCCCCCCCCCCCC(=O)O)C(=O)O)C(=O)N[C@@H](CC(N)=O)C(=O)N[C@@H]([C@@H](C)O)C(=O)N[C@@H](C)C(=O)N[C@@H]([C@@H](C)O)C(=O)N1)[C@@H](C)O)C(=O)N[C@@H](CC(C)C)C(=O)N1CCC[C@H]1C(=O)N1CCC[C@H]1C(=O)N[C@H](C(=O)N[C@@H](CC(N)=O)C(=O)N[C@H](C(=O)NCC(=O)N[C@@H](CO)C(=O)N[C@@H](Cc1c[nH]cn1)C(=O)N[C@H](C(=O)N[C@@H](Cc1ccc(O)cc1)C(N)=O)[C@@H](C)O)C(C)C)[C@@H](C)O [Example 62, N-alpha-[(S)-4-Carboxy-4-(17-carboxyheptadecanoylamino)butyryl]-Glu-[Glu14,Arg17,His35]-pramlintide] ({C18 diacid-γGlu}-EKCNTATCATQRLAEFLRHSSNNFGPILPPTNVGSHTY-NH2; disulfide 3-8 (inferred); C-terminus assumed) | 0.281 | 17.6 | 1.07
CC(C)C[C@H](NC(=O)[C@H](CCCNC(=N)N)NC(=O)[C@H](CCC(N)=O)NC(=O)[C@@H](NC(=O)[C@H](C)NC(=O)[C@@H]1CSSC[C@H](NC(=O)[C@H](CCCCN)NC(=O)CC[C@H](NC(=O)CCCCCCCCCCCCCCCCCCC(=O)O)C(=O)O)C(=O)N[C@@H](CC(N)=O)C(=O)N[C@@H]([C@@H](C)O)C(=O)N[C@@H](C)C(=O)N[C@@H]([C@@H](C)O)C(=O)N1)[C@@H](C)O)C(=O)N[C@@H](C)C(=O)N[C@@H](CCC(=O)O)C(=O)N[C@@H](Cc1ccccc1)C(=O)N[C@@H](CC(C)C)C(=O)N[C@@H](CCCNC(=N)N)C(=O)N[C@@H](Cc1c[nH]cn1)C(=O)N[C@@H](CO)C(=O)N[C@@H](CO)C(=O)N[C@@H](CC(N)=O)C(=O)N[C@@H](CC(N)=O)C(=O)N[C@@H](Cc1ccccc1)C(=O)NCC(=O)N[C@@H](C)C(=O)N1CCC[C@H]1C(=O)N[C@@H](CC(C)C)C(=O)N[C@@H](CO)C(=O)N[C@@H](CO)C(=O)N[C@H](C(=O)N[C@@H](CC(N)=O)C(=O)N[C@H](C(=O)NCC(=O)N[C@@H](CO)C(=O)N[C@@H](Cc1c[nH]cn1)C(=O)N[C@H](C(=O)N[C@@H](Cc1ccc(O)cc1)C(N)=O)[C@@H](C)O)C(C)C)[C@@H](C)O [Example 65, N-alpha-[(S)-4-Carboxy-4-(19-carboxynonadecanoylamino)butyryl]-[Glu14,Arg17,Ala25,Pro26,Ser28,Ser29,His35]-pramlintide] ({C20 diacid-γGlu}-KCNTATCATQRLAEFLRHSSNNFGAPLSSTNVGSHTY-NH2; disulfide 2-7 (inferred); C-terminus assumed) | 1.33 | 5.35 | 0.342
CC[C@H](C)[C@H](NC(=O)[C@@H]1CCCN1C(=O)CNC(=O)[C@H](Cc1ccccc1)NC(=O)[C@H](CC(N)=O)NC(=O)[C@H](CC(N)=O)NC(=O)[C@H](CO)NC(=O)[C@H](CO)NC(=O)[C@H](Cc1c[nH]cn1)NC(=O)[C@H](Cc1c[nH]cn1)NC(=O)[C@H](CC(C)C)NC(=O)[C@H](Cc1ccccc1)NC(=O)[C@H](CCC(=O)O)NC(=O)[C@H](C)NC(=O)[C@H](CC(C)C)NC(=O)[C@H](CCCNC(=N)N)NC(=O)[C@H](CCC(N)=O)NC(=O)[C@@H](NC(=O)[C@H](C)NC(=O)[C@@H]1CSSC[C@H](NC(=O)[C@H](CCCCN)NC(=O)[C@H](Cc2c[nH]cn2)NC(=O)CC[C@H](NC(=O)CCCCCCCCCCCCCCCCCCC(=O)O)C(=O)O)C(=O)N[C@@H](CC(N)=O)C(=O)N[C@@H]([C@@H](C)O)C(=O)N[C@@H](C)C(=O)N[C@@H]([C@@H](C)O)C(=O)N1)[C@@H](C)O)C(=O)N[C@@H](CC(C)C)C(=O)N1CCC[C@H]1C(=O)N1CCC[C@H]1C(=O)N[C@H](C(=O)N[C@@H](CC(N)=O)C(=O)N[C@H](C(=O)NCC(=O)N[C@@H](CO)C(=O)N[C@@H](Cc1c[nH]cn1)C(=O)N[C@H](C(=O)N[C@@H](Cc1ccc(O)cc1)C(N)=O)[C@@H](C)O)C(C)C)[C@@H](C)O [Example 66, N-alpha-[(S)-4-Carboxy-4-(19-carboxynonadecanoylamino)butyryl]-His-[Glu14,His17,His35]-pramlintide] ({C20 diacid-γGlu}-HKCNTATCATQRLAEFLHHSSNNFGPILPPTNVGSHTY-NH2; disulfide 3-8 (inferred); C-terminus assumed) | 0.305 | 0.656 | 0.21
CC[C@H](C)[C@H](NC(=O)[C@H](CCCCNC(=O)COCCOCCNC(=O)COCCOCCNC(=O)CC[C@H](NC(=O)CCCCCCCCCCCCCCCCC(=O)O)C(=O)O)NC(=O)CNC(=O)[C@H](Cc1ccccc1)NC(=O)[C@H](CC(N)=O)NC(=O)[C@H](CC(N)=O)NC(=O)[C@H](CO)NC(=O)[C@H](CO)NC(=O)[C@H](Cc1c[nH]cn1)NC(=O)[C@H](Cc1c[nH]cn1)NC(=O)[C@H](CC(C)C)NC(=O)[C@H](Cc1ccccc1)NC(=O)[C@H](CCC(=O)O)NC(=O)[C@H](C)NC(=O)[C@H](CC(C)C)NC(=O)[C@H](CCCNC(=N)N)NC(=O)[C@H](CCC(N)=O)NC(=O)[C@@H](NC(=O)[C@H](C)NC(=O)[C@@H]1CSSC[C@H](NC(=O)[C@@H](N)CCCCN)C(=O)N[C@@H](CC(N)=O)C(=O)N[C@@H]([C@@H](C)O)C(=O)N[C@@H](C)C(=O)N[C@@H]([C@@H](C)O)C(=O)N1)[C@@H](C)O)C(=O)N[C@@H](CC(C)C)C(=O)N1CCC[C@H]1C(=O)N1CCC[C@H]1C(=O)N[C@H](C(=O)N[C@@H](CC(N)=O)C(=O)N[C@H](C(=O)NCC(=O)N[C@@H](CO)C(=O)N[C@@H](CC(N)=O)C(=O)N[C@H](C(=O)N[C@@H](Cc1ccc(O)cc1)C(N)=O)[C@@H](C)O)C(C)C)[C@@H](C)O [Example 73, N-epsilon25-[2-(2-{2-[2-(2-{2-[(S)-4-Carboxy-4-(17-carboxyheptadecanoylamino)butyrylamino]ethoxy}ethoxy)acetylamino]ethoxy}ethoxy)acetyl]-[Glu14,His17,Lys25]-pramlintide] (H-KCNTATCATQRLAEFLHHSSNNFGK([AEEA-AEEA-γGlu-C18 diacid])ILPPTNVGSNTY-NH2; disulfide 2-7 (inferred); N-terminus and C-terminus assumed) | 0.052 | 0.167 | 0.045
CC[C@H](C)[C@H](NC(=O)[C@@H]1CCCN1C(=O)CNC(=O)[C@H](Cc1ccccc1)NC(=O)[C@H](CC(N)=O)NC(=O)[C@H](CC(N)=O)NC(=O)[C@H](CO)NC(=O)[C@H](CO)NC(=O)[C@H](Cc1c[nH]cn1)NC(=O)[C@H](Cc1c[nH]cn1)NC(=O)[C@H](CC(C)C)NC(=O)[C@H](Cc1ccccc1)NC(=O)[C@H](CCC(=O)O)NC(=O)[C@H](C)NC(=O)[C@H](CC(C)C)NC(=O)[C@H](CCCNC(=N)N)NC(=O)[C@H](CCC(N)=O)NC(=O)[C@@H](NC(=O)[C@H](C)NC(=O)[C@@H]1CSSC[C@H](NC(=O)[C@H](Cc2c[nH]cn2)NC(=O)CC[C@H](NC(=O)CCCCCCCCCCCCCCCCCCC(=O)O)C(=O)O)C(=O)N[C@@H](CC(N)=O)C(=O)N[C@@H]([C@@H](C)O)C(=O)N[C@@H](C)C(=O)N[C@@H]([C@@H](C)O)C(=O)N1)[C@@H](C)O)C(=O)N[C@@H](CC(C)C)C(=O)N1CCC[C@H]1C(=O)N1CCC[C@H]1C(=O)N[C@H](C(=O)N[C@@H](CC(N)=O)C(=O)N[C@H](C(=O)NCC(=O)N[C@@H](CO)C(=O)N[C@@H](Cc1c[nH]cn1)C(=O)N[C@H](C(=O)N[C@@H](Cc1ccc(O)cc1)C(N)=O)[C@@H](C)O)C(C)C)[C@@H](C)O [Example 76, N-alpha-[(S)-4-Carboxy-4-(19-carboxynonadecanoylamino)butyryl]-[His1,Glu14,His17,His35]-pramlintide] ({C20 diacid-γGlu}-HCNTATCATQRLAEFLHHSSNNFGPILPPTNVGSHTY-NH2; disulfide 2-7 (inferred); C-terminus assumed) | 0.224 | 1.04 | 0.0855
